{"source": "patent US20080085855A1", "about": "“Perivascular wraps” (Angiotech International AG, priority 2002, published 2008)", "key": {"intimal hyperplasia [1]": {"system": "intimal hyperplasia", "experiment": "Rat balloon injury carotid artery model, paclitaxel containing mesh", "assay_type": "in vivo", "conditions": "1×1 cm paclitaxel-containing mesh (345 μg paclitaxel in 50:50 PLG coating on 10:90 PLG mesh), perivascular, 14 days after balloon injury", "experimental": "Wistar rats weighing 400-500 g were anesthetized with 1.5% halothane in oxygen and the left external carotid artery was exposed. An A 2 French Fogarty balloon embolectomy catheter (Baxter, Irvine, Calif.) was advanced through an arteriotomy in the external carotid artery down the left common carotid artery to the aorta. The balloon was inflated with enough saline to generate slight resistance (approximately 0.02 ml) and it was withdrawn with a twisting motion to the carotid bifurcation. The balloon was then deflated and the procedure repeated twice more. This technique produced distension of the arterial wall and denudation of the endothelium. The external carotid artery was ligated after removal of the catheter. The right common carotid artery was not injured and was used as a control.\nImmediately after injury of the left common carotid artery, a 1 cm long distal segment of the artery was exposed and treated with a 1×1 cm paclitaxel-containing mesh. The wound was then closed the animals were kept for 14 days.\nAt the time of sacrifice, the animals were euthanized with carbon dioxide and pressure perfused at 100 mmHg with 10% phosphate buffered formaldehyde for 15 minutes. Both carotid arteries were harvested and left overnight in fixative. The fixed arteries were processed and embedded in paraffin wax. […]"}, "intimal hyperplasia [2]": {"system": "intimal hyperplasia", "experiment": "Sheep carotid artery bypass graft (ePTFE) model, paclitaxel containing mesh", "conditions": "for Percent Change in Maximal Intimal Thickness / Percent Change in % Stenosis / Percent Change in Intimal Area: vs zero-dose mesh", "experimental": "The left and right carotid arteries of anesthetized sheep were exposed by sharp dissection. A tunnel was formed from one carotid artery to the other to accommodate the ePTFE graft. The ePTFE graft was tunneled and trimmed for appropriate length and configuration. Using standard vascular technique, the ePTFE graft was anastomosed end-to-side with running 6-0 polypropylene suture. The angle of the junction between graft and native vessel was approximately 45°. The length of the implanted graft ranged from 9.5-15 cm (average 11 cm).\nPaclitaxel was incorporated into the 2 cm×5 cm PLG mesh in the following doses and animal test groups: Group 1, 0 mg; Group 2, 0.6 mg; Group 3, 1.8 mg; and Group 4, 3.0 mg. The mesh was placed at the distal end of the graft at the anastomosis site. To place the mesh, the long side was pulled under the artery and up around either side of the distal end of the graft. One edge was positioned as close to the heel of the anastomosis as possible. The top edges of the mesh were sewn together with one suture on either side of the graft so that no gaps were left in the circumferential direction. One suture was placed at the proximal end and the other at the distal end of the mesh, and sewn to nearby connective tissue to prevent slippage of the mesh away from the anastomosis (see FIG. 6). The surgical sites were closed in layers with running absorbable sutures. Standard antibiotics and analgesics were administered after surgery for several days as required.\nAt approximately 56 days post-graft implant, animals were anesthetized. Contrast media was injected and angiograms performed of the distal graft and artery at the distal anastomosis. Immediately prior to euthanasia, the animals received heparin (150 U/kg, IV) and immediately after euthanasia, the ePTFE graft was rinsed in situ with lactated Ringers solution and perfusion-fixed in situ with 10% neutral buffered formalin (NBF). The specimens were excised en bloc and allowed to immersion fix in 10% NBF at least 24 hours prior to histological processing.\nThe fixed specimens were trimmed and mapped accurately for corresponding cross sectional location in reference to the ePTFE graft configuration. […] A total of nine sections were cut at the distal end of the graft: two cut perpendicular to the artery on either side of the anastomosis (A1 and A5), one perpendicular to the artery through the “toe” of the anastomosis (A2), one or two cut through the floor of the anastomosis adjacent to the “toe” (A3 and A4), three cut perpendicular to the graft at its distal end, and one through the center of the graft. Adjacent sections were cut at approximately 3 mm intervals. The specimens were paraffin-embedded, cross-sectioned, and four sets of slides made, two stained with hematoxylin and eosin (H&E), and one each stained with Masson's trichrome and Verhoeff Van Gieson (VVG). These stains were selected for their ability to show tissue cellularity (H&E), collagen, smooth muscle and fibrin (Masson's Trichrome), and elastin (VVG).\nThe morphometric analysis system consists of an Olympus BX40 microscope, Optronics Image Sensor DEI-750, Sony HR Trinitron monitor, and PC computer equipped with Media Cybernetics Image-Pro Plus software v."}, "[3]": {"conditions": "Dose 0.6 (mg in PLG mesh, Group 2), Graft Section 6, approx. 56 days"}, "[4]": {"conditions": "Dose 0.6 (mg in PLG mesh, Group 2), Graft Section 7, approx. 56 days"}, "[5]": {"conditions": "Dose 0.6 (mg in PLG mesh, Group 2), Graft Section 8, approx. 56 days"}, "[6]": {"conditions": "Dose 1.8 (mg in PLG mesh, Group 3), Graft Section 6, approx. 56 days"}, "[7]": {"conditions": "Dose 1.8 (mg in PLG mesh, Group 3), Graft Section 7, approx. 56 days"}, "[8]": {"conditions": "Dose 1.8 (mg in PLG mesh, Group 3), Graft Section 8, approx. 56 days"}, "[9]": {"conditions": "Dose 3.0 (mg in PLG mesh, Group 4), Graft Section 6, approx. 56 days"}, "[10]": {"conditions": "Dose 3.0 (mg in PLG mesh, Group 4), Graft Section 7, approx. 56 days"}, "[11]": {"conditions": "Dose 3.0 (mg in PLG mesh, Group 4), Graft Section 8, approx. 56 days"}}, "data": [{"smiles": "CC(=O)O[C@H]1C(=O)[C@@]2(C)[C@H]([C@H](OC(=O)c3ccccc3)[C@]3(O)C[C@H](OC(=O)[C@H](O)[C@@H](NC(=O)c4ccccc4)c4ccccc4)C(C)=C1C3(C)C)[C@]1(OC(C)=O)CO[C@@H]1C[C@@H]2O", "note": "[Paclitaxel, paclitaxel]", "values": [{"measurement": "intimal hyperplasia (histology, FIGS. 3-5)", "setting": "intimal hyperplasia [1]", "value": "dramatic reduction in intimal hyperplasia"}, {"measurement": "Percent Change in Maximal Intimal Thickness", "setting": "intimal hyperplasia [2]; Dose 0.6 (mg in 2 cm×5 cm PLG mesh, Group 2), Graft \"Toe\" Section 2, approx. 56 days", "value": "−5", "unit": "%"}, {"measurement": "Percent Change in % Stenosis", "setting": "intimal hyperplasia [2]; [3]", "value": "−59", "unit": "%^"}, {"measurement": "Percent Change in Intimal Area", "setting": "intimal hyperplasia [2]; [3]", "value": "−62", "unit": "%^"}, {"measurement": "Percent Change in Maximal Intimal Thickness", "setting": "intimal hyperplasia [2]; [3]", "value": "−71", "unit": "%^2"}, {"measurement": "Percent Change in % Stenosis", "setting": "intimal hyperplasia [2]; [4]", "value": "−66", "unit": "%^2"}, {"measurement": "Percent Change in Intimal Area", "setting": "intimal hyperplasia [2]; [4]", "value": "−67", "unit": "%^2"}, {"measurement": "Percent Change in Maximal Intimal Thickness", "setting": "intimal hyperplasia [2]; [4]", "value": "−65", "unit": "%"}, {"measurement": "Percent Change in % Stenosis", "setting": "intimal hyperplasia [2]; [5]", "value": "−75", "unit": "%^2"}, {"measurement": "Percent Change in Intimal Area", "setting": "intimal hyperplasia [2]; [5]", "value": "−77", "unit": "%"}, {"measurement": "Percent Change in Maximal Intimal Thickness", "setting": "intimal hyperplasia [2]; [5]", "value": "−59", "unit": "%"}, {"measurement": "Percent Change in Maximal Intimal Thickness", "setting": "intimal hyperplasia [2]; Dose 1.8 (mg in PLG mesh, Group 3), Graft \"Toe\" Section 2, approx. 56 days", "value": "−28", "unit": "%"}, {"measurement": "Percent Change in % Stenosis", "setting": "intimal hyperplasia [2]; [6]", "value": "−84", "unit": "%^2"}, {"measurement": "Percent Change in Intimal Area", "setting": "intimal hyperplasia [2]; [6]", "value": "−85", "unit": "%^2"}, {"measurement": "Percent Change in Maximal Intimal Thickness", "setting": "intimal hyperplasia [2]; [6]", "value": "−77", "unit": "%^2"}, {"measurement": "Percent Change in % Stenosis", "setting": "intimal hyperplasia [2]; [7]", "value": "−85", "unit": "%^2"}, {"measurement": "Percent Change in Intimal Area", "setting": "intimal hyperplasia [2]; [7]", "value": "−85", "unit": "%^2"}, {"measurement": "Percent Change in Maximal Intimal Thickness", "setting": "intimal hyperplasia [2]; [7]", "value": "−71", "unit": "%^2"}, {"measurement": "Percent Change in % Stenosis", "setting": "intimal hyperplasia [2]; [8]", "value": "−75", "unit": "%^2"}, {"measurement": "Percent Change in Intimal Area", "setting": "intimal hyperplasia [2]; [8]", "value": "−76", "unit": "%"}, {"measurement": "Percent Change in Maximal Intimal Thickness", "setting": "intimal hyperplasia [2]; [8]", "value": "−63", "unit": "%"}, {"measurement": "Percent Change in Maximal Intimal Thickness", "setting": "intimal hyperplasia [2]; Dose 3.0 (mg in PLG mesh, Group 4), Graft \"Toe\" Section 2, approx. 56 days", "value": "−34", "unit": "%"}, {"measurement": "Percent Change in % Stenosis", "setting": "intimal hyperplasia [2]; [9]", "value": "−81", "unit": "%^2"}, {"measurement": "Percent Change in Intimal Area", "setting": "intimal hyperplasia [2]; [9]", "value": "−82", "unit": "%^2"}, {"measurement": "Percent Change in Maximal Intimal Thickness", "setting": "intimal hyperplasia [2]; [9]", "value": "−74", "unit": "%^2"}, {"measurement": "Percent Change in % Stenosis", "setting": "intimal hyperplasia [2]; [10]", "value": "−79", "unit": "%^2"}, {"measurement": "Percent Change in Intimal Area", "setting": "intimal hyperplasia [2]; [10]", "value": "−80", "unit": "%^2"}, {"measurement": "Percent Change in Maximal Intimal Thickness", "setting": "intimal hyperplasia [2]; [10]", "value": "−69", "unit": "%"}, {"measurement": "Percent Change in % Stenosis", "setting": "intimal hyperplasia [2]; [11]", "value": "−86", "unit": "%^"}, {"measurement": "Percent Change in Intimal Area", "setting": "intimal hyperplasia [2]; [11]", "value": "−86", "unit": "%"}, {"measurement": "Percent Change in Maximal Intimal Thickness", "setting": "intimal hyperplasia [2]; [11]", "value": "−83", "unit": "%^2"}, {"measurement": "MIT (maximal neointimal thickness), group average ±SD", "setting": "intimal hyperplasia [2]; Section 2 (\"toe\" section), high dose (3.0 mg), approx. 56 days", "value": "0.54±0.23", "unit": "mm"}, {"measurement": "MIT less than controls", "setting": "intimal hyperplasia [2]; Section 2 (\"toe\" section), high dose (3.0 mg), not statistically significant (p>0.05)", "value": 34, "unit": "%"}, {"measurement": "MIT (maximal neointimal thickness), group average ±SD", "setting": "intimal hyperplasia [2]; Section 2 (\"toe\" section), low dose (0.6 mg), approx. 56 days", "value": "0.78±0.30", "unit": "mm"}, {"measurement": "MIT less than controls", "setting": "intimal hyperplasia [2]; Section 2 (\"toe\" section), low dose (0.6 mg), not statistically significant (p>0.05)", "value": 5, "unit": "%"}, {"measurement": "MIT (maximal neointimal thickness), group average ±SD", "setting": "intimal hyperplasia [2]; Section 2 (\"toe\" section), mid dose (1.8 mg), approx. 56 days", "value": "0.59±0.14", "unit": "mm"}, {"measurement": "MIT less than controls", "setting": "intimal hyperplasia [2]; Section 2 (\"toe\" section), mid dose (1.8 mg), not statistically significant (p>0.05)", "value": 28, "unit": "%"}, {"measurement": "mechanical integrity of the anastomosis (leakage)", "setting": "intimal hyperplasia [2]; dose range tested (0.6-3.0 mg in mesh)", "value": "does not affect the mechanical integrity of the anastomosis"}, {"measurement": "Intraluminal endothelialization", "setting": "intimal hyperplasia [2]; doses tested (0.6-3.0 mg in mesh)", "value": "not affected"}, {"measurement": "lesions causing luminal narrowing at the distal end of the graft", "setting": "intimal hyperplasia [2]; lowest paclitaxel dose, 0.6 mg", "value": "marked and signifimayt reduction"}, {"measurement": "reduction in stenosis", "setting": "intimal hyperplasia [2]; paclitaxel groups (0.6, 1.8, 3.0 mg), sections 6, 7, 8, 7 of 9 values significantly lower than controls (p≦0.05)", "value": "70-80%"}, {"measurement": "IA (neointimal area) reduced", "setting": "intimal hyperplasia [2]; paclitaxel groups (0.6, 1.8, 3.0 mg), sections 6, 7, 8, vs control group", "value": "70-80%"}, {"measurement": "MIT (maximal neointimal thickness), group average ±SD", "setting": "intimal hyperplasia [2]; section 6 (first full cross section of graft adjacent to the distal anastomosis), low dose (0.6 mg), p<0.05", "value": "0.38±0.12", "unit": "mm"}, {"measurement": "MIT (maximal neointimal thickness), group average ±SD", "setting": "intimal hyperplasia [2]; section 6, high dose (3.0 mg), p<0.05", "value": "0.34±0.20", "unit": "mm"}, {"measurement": "MIT (maximal neointimal thickness), group average ±SD", "setting": "intimal hyperplasia [2]; section 6, medium dose (1.8 mg), p<0.05", "value": "0.31±0.29", "unit": "mm"}, {"measurement": "MIT less than controls", "setting": "intimal hyperplasia [2]; sections 7 and 8, all the paclitaxel groups (0.6, 1.8, 3.0 mg)", "value": "approximately 70%"}]}]}
